Some results are limits rather than exact numbers.

T1 sequence (P14902 whole entry): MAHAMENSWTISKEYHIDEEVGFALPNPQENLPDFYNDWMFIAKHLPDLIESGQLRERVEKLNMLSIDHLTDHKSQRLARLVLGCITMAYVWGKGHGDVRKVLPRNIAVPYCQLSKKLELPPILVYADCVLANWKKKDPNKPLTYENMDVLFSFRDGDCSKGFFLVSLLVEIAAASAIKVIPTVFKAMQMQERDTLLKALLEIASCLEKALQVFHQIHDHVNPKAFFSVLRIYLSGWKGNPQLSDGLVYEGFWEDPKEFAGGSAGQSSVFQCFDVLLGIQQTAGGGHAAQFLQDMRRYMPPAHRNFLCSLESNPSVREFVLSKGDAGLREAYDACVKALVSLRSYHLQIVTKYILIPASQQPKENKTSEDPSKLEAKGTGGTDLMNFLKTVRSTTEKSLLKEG

This experiment has as its target T1, human IDO1 (Homo sapiens, UniProt P14902).
T1 construct: expressed in transfected cells
As to the kind of experiment: HEK293 cells stably expressing human IDO1, IDO inhibition assay (kynurenine, Ehrlich reagent, absorbance 490 nm). It counts as cell-based. As to conditions: 20 hours incubation, 500 nM reference standard = 100% inhibition, read-out: HEK Human IDO-1 Biological Activity (IC50). The procedure: HEK293 cells were transfected with a pCDNA-based mammalian expression vector harboring human IDO1 cDNA (NM 002164.2) by electroporation. They were cultured in medium (DMEM with 10% FBS) containing 1 mg/ml G418 for two weeks. Clones of HEK293 cells that stably expressed human IDO1 protein were selected and expanded for IDO inhibition assay.
The human IDO1/HEK293 cells were seeded at 10,000 cells per 50 μL per well with RPMI/phenol red free media contains 10% FBS in a 384-well black wall clear bottom tissue culture plate (Matrix Technologies LLC) 100 nL of certain concentration of compound was then added to each well using ECHO liquid handling systems. The cells were incubated for 20 hours in 37° C. incubator with 5% CO2.
The compound treatments were stopped by adding Trichloroacetic Acid (Sigma-Aldrich) to a final concentration at 0.2%. The cell plate was further incubated at 50° C. for 30 minute. The equal volume supernatant […] and 0.2% (w/v) Ehrlich reagent (4-dimethylaminobenzaldehyde, Sigma-Aldrich) in glacial acetic acid were mixed in a new clear bottom 384-well plate. This plate was then incubated at room temperature for 30 minute. The absorbance at 490 nm was measured on Envision plate reader.
`Cc1nccc(C2CCC(C(C)C(=O)Nc3ccc(Cl)cc3)CC2)c1C` (single isomer, unassigned) [Example 311b, N-(4-chlorophenyl)-2-(4-(2,3-dimethylpyridin-4-yl)cyclohexyl) propanamide]: the IC50 is less than 0.05 µM. The result for `Cc1nccc(C2CCC(C(C)C(=O)Nc3ccc(Cl)cc3)CC2)c1C` (single isomer, unassigned) [Example 311c, N-(4-chlorophenyl)-2-(4-(2,3-dimethylpyridin-4-yl)cyclohexyl) propanamide] reads greater than 0.25 µM; that for `Cc1nccc(C2CCC(C(C)C(=O)Nc3ccc(Cl)cc3)CC2)c1C` (single isomer, unassigned) [Example 311d, N-(4-chlorophenyl)-2-(4-(2,3-dimethylpyridin-4-yl)cyclohexyl) propanamide], less than 0.05 µM; that for `Cc1nccc(C2CCC(C(C)C(=O)Nc3ccc(Cl)cc3)CC2)c1C` (single isomer, unassigned) [Example 311f, N-(4-chlorophenyl)-2-(4-(2,3-dimethylpyridin-4-yl)cyclohexyl) propanamide], less than 0.25 µM. The result for `CC(C(=O)Nc1ccc(Cl)cc1)C1CCC(c2ccnc(C(F)(F)F)c2)CC1` (single isomer, unassigned) [Example 312a, N-(4-chlorophenyl)-2-(4-(2-(trifluoromethyl)pyridin-4-yl)cyclohexyl) propanamide] reads less than 0.25 µM; that for `CC(C(=O)Nc1ccc(Cl)cc1)C1CCC(c2ccnc(C(F)(F)F)c2)CC1` (single isomer, unassigned) [Example 312b, N-(4-chlorophenyl)-2-(4-(2-(trifluoromethyl)pyridin-4-yl)cyclohexyl) propanamide], less than 0.05 µM. The result for `CC(C(=O)Nc1ccc(Cl)cc1)C1CCC(c2ccnc(C(F)(F)F)c2)CC1` (single isomer, unassigned) [Example 312c, N-(4-chlorophenyl)-2-(4-(2-(trifluoromethyl)pyridin-4-yl)cyclohexyl) propanamide] reads less than 0.05 µM; that for `CC(C(=O)Nc1ccc(Cl)cc1)C1CCC(c2ccnc(C(F)(F)F)c2)CC1` (single isomer, unassigned) [Example 312d, N-(4-chlorophenyl)-2-(4-(2-(trifluoromethyl)pyridin-4-yl)cyclohexyl) propanamide], less than 0.25 µM; that for `Cc1cnccc1C1CCC(C(C)C(=O)Nc2ccc(Cl)cc2)CC1` (single isomer, unassigned) [Example 313a, N-(4-chlorophenyl)-2-(4-(3-methylpyridin-4-yl)cyclohexyl) propanamide], less than 0.05 µM. With `Cc1cnccc1C1CCC(C(C)C(=O)Nc2ccc(Cl)cc2)CC1` (single isomer, unassigned) [Example 313b, N-(4-chlorophenyl)-2-(4-(3-methylpyridin-4-yl)cyclohexyl) propanamide], the IC50 is less than 0.05 µM. The result for `Cc1cnccc1C1CCC(C(C)C(=O)Nc2ccc(Cl)cc2)CC1` (single isomer, unassigned) [Example 313c, N-(4-chlorophenyl)-2-(4-(3-methylpyridin-4-yl)cyclohexyl) propanamide] reads greater than 0.25 µM; that for `Cc1cnccc1C1CCC(C(C)C(=O)Nc2ccc(Cl)cc2)CC1` (single isomer, unassigned) [Example 313d, N-(4-chlorophenyl)-2-(4-(3-methylpyridin-4-yl)cyclohexyl) propanamide], less than 0.05 µM; that for `Cc1cnccc1C1CCC(C(C)C(=O)Nc2ccc(Cl)cc2)CC1` (single isomer, unassigned) [Example 313e, N-(4-chlorophenyl)-2-(4-(3-methylpyridin-4-yl)cyclohexyl) propanamide], greater than 0.25 µM. `Cc1cnccc1C1CCC(C(C)C(=O)Nc2ccc(Cl)cc2)CC1` (single isomer, unassigned) [Example 313f, N-(4-chlorophenyl)-2-(4-(3-methylpyridin-4-yl)cyclohexyl) propanamide]: the IC50 is less than 0.05 µM. The result for `CC(C(=O)Nc1ccc(Cl)cc1)C1CCC(c2cc(-c3ccc(F)cc3)ncn2)CC1` (single isomer, unassigned) [Example 314b, N-(4-chlorophenyl)-2-(4-(6-(4-fluorophenyl)pyrimidin-4-yl)cyclohexyl) propanamide] reads less than 0.25 µM; that for `CC(=O)Nc1cc(C2CCC(C(C)C(=O)Nc3ccc(Cl)cc3)CC2)ccn1` (single isomer, unassigned) [Example 315a, 2-(4-(2-acetamidopyridin-4-yl)cyclohexyl)-N-(4-chlorophenyl) propanamide], less than 0.25 µM. Turning to `CC(=O)Nc1cc(C2CCC(C(C)C(=O)Nc3ccc(Cl)cc3)CC2)ccn1` (single isomer, unassigned) [Example 315b, 2-(4-(2-acetamidopyridin-4-yl)cyclohexyl)-N-(4-chlorophenyl) propanamide], the IC50 was less than 0.05 µM. The result for `CC(C(=O)Nc1ccc(Cl)cc1)C1CCC(c2ccnnc2)CC1` (single isomer, unassigned) [Example 316a, N-(4-chlorophenyl)-2-(4-(pyridazin-4-yl)cyclohexyl) propanamide] reads greater than 0.25 µM; that for `CC(C(=O)Nc1ccc(Cl)cc1)C1CCC(c2ccnnc2)CC1` (single isomer, unassigned) [Example 316b, N-(4-chlorophenyl)-2-(4-(pyridazin-4-yl)cyclohexyl) propanamide], greater than 0.25 µM; that for `CC(C(=O)Nc1ccc(Cl)cc1)C1CCC(c2ccnnc2)CC1` (single isomer, unassigned) [Example 316c, N-(4-chlorophenyl)-2-(4-(pyridazin-4-yl)cyclohexyl) propanamide], greater than 0.25 µM. The result for `CC(C(=O)Nc1ccc(Cl)cc1)C1CCC(c2ccnnc2)CC1` (single isomer, unassigned) [Example 316d, N-(4-chlorophenyl)-2-(4-(pyridazin-4-yl)cyclohexyl) propanamide] reads greater than 0.25 µM.

As for `CC(C(=O)Nc1ccc(Cl)cc1)C1CCC(c2cccc(-c3ccccc3)c2)CC1` (single isomer, unassigned) [Example 317a, 2-(4-([1,1′-biphenyl]-3-yl)cyclohexyl)-N-(4-chlorophenyl) propanamide], the IC50 was less than 0.05 µM. The result for `CC(C(=O)Nc1ccc(Cl)cc1)C1CCC(c2cccc(-c3ccccc3)c2)CC1` (single isomer, unassigned) [Example 317b, 2-(4-([1,1′-biphenyl]-3-yl)cyclohexyl)-N-(4-chlorophenyl) propanamide] reads less than 0.05 µM; that for `CC(C(=O)Nc1ccc(Cl)cc1)C1CCC(c2cccc(-c3ccccc3)c2)CC1` (single isomer, unassigned) [Example 317c, 2-(4-([1,1′-biphenyl]-3-yl)cyclohexyl)-N-(4-chlorophenyl) propanamide], greater than 0.25 µM. `CC(C(=O)Nc1ccc(Cl)cc1)C1CCC(c2cccc(-c3ccccc3)c2)CC1` (single isomer, unassigned) [Example 317d, 2-(4-([1,1′-biphenyl]-3-yl)cyclohexyl)-N-(4-chlorophenyl) propanamide]: the IC50 is greater than 0.25 µM. The result for `CC(C(=O)Nc1ccc(Cl)cc1)C1CCC(c2ccncc2F)CC1` (single isomer, unassigned) [Example 318b, N-(4-chlorophenyl)-2-(4-(3-fluoropyridin-4-yl)cyclohexyl) propanamide] reads less than 0.05 µM; that for `CC(C(=O)Nc1ccc(Cl)cc1)C1CCC(c2ccncc2F)CC1` (single isomer, unassigned) [Example 318c, N-(4-chlorophenyl)-2-(4-(3-fluoropyridin-4-yl)cyclohexyl) propanamide], greater than 0.25 µM; that for `CC(C(=O)Nc1ccc(Cl)cc1)C1CCC(c2ccncc2F)CC1` (single isomer, unassigned) [Example 318d, N-(4-chlorophenyl)-2-(4-(3-fluoropyridin-4-yl)cyclohexyl) propanamide], less than 0.25 µM. The result for `CC(C(=O)Nc1ccc(Cl)cc1)C1CCC(c2ccncc2F)CC1` (single isomer, unassigned) [Example 318e, N-(4-chlorophenyl)-2-(4-(3-fluoropyridin-4-yl)cyclohexyl) propanamide] reads less than 0.05 µM; that for `Cc1nccc(O[C@H]2CC[C@H](C(C)C(=O)Nc3ccc(Cl)cc3)CC2)c1Cl` (single isomer, unassigned) [Example 320, rac-2-((trans)-4-((3-chloro-2-methylpyridin-4-yl)oxy)cyclohexyl)-N-(4-chlorophenyl)propanamide], less than 0.05 µM; that for `C[C@H](C(=O)Nc1ccc(Cl)cc1)[C@H]1CC[C@H](Oc2ccnc(C(F)(F)F)c2)CC1` (single isomer, unassigned) [Example 324a], less than 0.25 µM. The result for `C[C@@H](C(=O)Nc1ccc(Cl)cc1)[C@H]1CC[C@H](Oc2ccnc(C(F)(F)F)c2)CC1` (single isomer, unassigned) [Example 324b] reads greater than 0.25 µM. Take `COc1cc(C2CCC(C(C)C(=O)Nc3ccc(Cl)cc3)CC2)ccn1` (stereo not drawn) [Example 307a, Cis- or trans-N-(4-Chlorophenyl)-2-(4-(2-methoxypyridin-4-yl)cyclohexyl)propanamide]: the IC50 was less than 0.05 µM. The result for `COc1cc(C2CCC(C(C)C(=O)Nc3ccc(Cl)cc3)CC2)ccn1` (stereo not drawn) [Example 307b, Cis- or trans-N-(4-Chlorophenyl)-2-(4-(2-methoxypyridin-4-yl)cyclohexyl)propanamide] reads less than 0.05 µM.

One may read the IC50 as the concentration needed to halve the response being measured.

(Values after US11932601B2, “Immunoregulatory agents” (FLEXUS BIOSCIENCES, INC., priority 2014, dated 2024).)
